Assay [1] deals with KOR (Cavia porcellus, UniProt P41144). The assay can be described thus: GPI/LMMP assay, inhibition of electrically stimulated muscle contraction. The assay is classed as cell-based, guinea pig.
The target of assay [2] is KOR (Homo sapiens, UniProt P41145). The assay can be described thus: [^35S]GTPγS assay, agonist mode. The format is biochemical. Particulars: 10 µM, KOR-CHO cells, compared to vehicle.
The next assay addresses hMOR (Homo sapiens, UniProt P35372). The assay can be described thus: Radioligand competition binding, [^3H]diprenorphine or [^3H]DAMGO. As to conditions: [^3H]diprenorphine, Kd = 2.81 nM; NC = no competition. Background: Displacement assays read how much labelled ligand stays bound in the presence of the test substance.
Assay [3] has as its target KOR (Mus musculus, UniProt P33534). As to the kind of experiment: Tail flick test, pretreatment before KOR agonist 17. The assay is classed as in vivo, mice. As to conditions: 10 µg in 5 µL l.p., 15 min before 17 (10 µg). A general note: In hot-plate and tail-flick tests a longer latency is read as antinociception.
Assay [4] is described as follows: Tail flick test, 52 °C water, compound alone.

Marks after values point to notes of the source that are not given here.

Sequence of KOR (Cavia porcellus, UniProt P41144) (P41144 whole entry): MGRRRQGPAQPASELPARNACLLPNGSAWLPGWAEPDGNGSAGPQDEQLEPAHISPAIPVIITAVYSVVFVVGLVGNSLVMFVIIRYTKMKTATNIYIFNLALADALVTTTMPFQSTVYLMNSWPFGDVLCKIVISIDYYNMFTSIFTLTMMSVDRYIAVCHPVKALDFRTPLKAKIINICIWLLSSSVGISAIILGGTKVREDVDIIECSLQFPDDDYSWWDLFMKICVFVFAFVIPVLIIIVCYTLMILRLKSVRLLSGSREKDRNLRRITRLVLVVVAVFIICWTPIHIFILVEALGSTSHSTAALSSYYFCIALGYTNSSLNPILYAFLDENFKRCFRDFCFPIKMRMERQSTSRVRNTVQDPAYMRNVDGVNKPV
Sequence of KOR (Homo sapiens, UniProt P41145) (P41145 whole entry): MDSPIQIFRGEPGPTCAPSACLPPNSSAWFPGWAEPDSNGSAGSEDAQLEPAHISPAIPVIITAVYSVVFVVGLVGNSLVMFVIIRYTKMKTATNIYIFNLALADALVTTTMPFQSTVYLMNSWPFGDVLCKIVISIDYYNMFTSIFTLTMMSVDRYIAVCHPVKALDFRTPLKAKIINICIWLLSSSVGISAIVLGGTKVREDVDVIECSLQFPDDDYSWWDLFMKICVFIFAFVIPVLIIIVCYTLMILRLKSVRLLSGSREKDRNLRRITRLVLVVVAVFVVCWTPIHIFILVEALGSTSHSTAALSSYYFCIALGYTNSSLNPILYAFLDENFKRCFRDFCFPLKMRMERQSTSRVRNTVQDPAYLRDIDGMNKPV
Sequence of hMOR (P35372 whole entry): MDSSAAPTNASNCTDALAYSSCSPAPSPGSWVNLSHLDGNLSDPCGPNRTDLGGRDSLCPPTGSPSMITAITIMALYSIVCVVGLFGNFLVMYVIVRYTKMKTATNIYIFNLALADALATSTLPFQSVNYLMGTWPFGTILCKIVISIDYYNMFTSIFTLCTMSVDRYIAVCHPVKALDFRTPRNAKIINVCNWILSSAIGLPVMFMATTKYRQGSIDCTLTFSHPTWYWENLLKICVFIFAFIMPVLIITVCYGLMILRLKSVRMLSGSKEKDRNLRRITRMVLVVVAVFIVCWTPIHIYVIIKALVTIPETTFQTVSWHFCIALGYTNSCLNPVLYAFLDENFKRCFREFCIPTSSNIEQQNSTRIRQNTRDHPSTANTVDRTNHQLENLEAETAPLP
Sequence of KOR (Mus musculus, UniProt P33534) (P33534 whole entry): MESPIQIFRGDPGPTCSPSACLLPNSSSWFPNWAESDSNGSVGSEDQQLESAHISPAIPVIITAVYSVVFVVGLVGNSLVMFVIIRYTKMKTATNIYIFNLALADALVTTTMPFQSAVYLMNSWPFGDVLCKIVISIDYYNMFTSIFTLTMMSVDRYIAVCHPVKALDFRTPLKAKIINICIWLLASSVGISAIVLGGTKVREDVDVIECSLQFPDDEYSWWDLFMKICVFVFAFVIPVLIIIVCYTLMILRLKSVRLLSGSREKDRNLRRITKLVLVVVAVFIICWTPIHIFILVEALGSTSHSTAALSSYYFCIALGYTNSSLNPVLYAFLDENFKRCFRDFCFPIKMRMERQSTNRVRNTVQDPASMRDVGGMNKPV

In the case of Ac-YGGFLRIRPK-NH2 [compound 5], the “percent of agonist activity” value on KOR [1] (1 µM test compound, compared to average signal 3 min prior to drug) turned out to be 0% ^b. Moreover, the “agonist response in GPI/LMMP” value on KOR [1] (in words) was “did not show significant responses”. In addition, the KOR activation entry at KOR [2] is recorded as “did not show KOR activation”.
For the substance Ac-YGPFLRIRPK-NH2 [compound 8], at hMOR, the Ki result is on record as “no competition”.
Regarding H-YGGFLRIRPK-NH2 [compound 3], at KOR [2], the KOR activation result is on record as “significant activation”.
Take H-YGPFLRIRPK-NH2 [compound 7]: on KOR [3], the “blockade of antinociceptive effect of 17” value is on record as “significantly blocked”. Further, in assay [4] (10 µg in 5 µL i.t., 30 min), the “elevation of TWL, % of max response” value was determined as 39.45 ± 6.95%. For the same substance, in assay [4] (0.1, 1.0 and 10 µg in 5 µL i.t., compared to vehicle), the “tail withdrawal latency (antinociceptive effect)” value is given as “significantly elevated tail withdrawal latency”.

(Values after PMC5693303 (Journal of medicinal chemistry, 2016).)
